This passage reports Activity results from ChEMBL document CHEMBL4177612, “Discovery of tranylcypromine analogs with an acylhydrazone substituent as LSD1 inactivators: Design, synthesis and their biological evaluation” (Bioorg Med Chem Lett, 2017).

Format in all cases: functional, cell-based
Experiment [1] deals with MGC-803. In words: Effect on LSD1 level in human MGC803 cells at 1 to 4 uM after 4 days by immunofluorescence analysis.
In experiment [2] the test system is MGC-803. In words: Anti-migratory activity against human MGC803 cells after 24 hrs by DAPI staining based transwell assay.
The subject of experiment [3] is MGC-803. In words: Antiinvasive activity against human MGC803 cells at 0.25 to 1 uM after 24 hrs by DAPI staining based matrigel coated transwell assay.

Activity calls are given as the source filed them. No cut-off for these calls is given here.

For the compound `CCN(CC)c1ccc(/C=N/NC(=O)CN[C@@H]2C[C@H]2c2ccc(F)c(F)c2)c(O)c1`, in experiment [1], the outcome was inactive. Further, the Activity result in experiment [2] was “Dose-dependent effect”. In experiment [3], the result was Active.
